# Measurements taken from PubChem BioAssay AID2060896 (Molecular Pharmacology Branch, DTP, NCI, 2025).
# System: 941728-121-R-J1-PDC complex spheroid viability
# Test: Anticancer human tumor 941728-121-R-J1-PDC patient-derived lung adenocarcinoma cell line growth inhibition [RAS]
# Conditions: for IC50: curve of first compound; for viability, T/C: stronger effect = lower value
# Excerpt: RAS pathway inhibitors in Combinations in Complex Spheroids
# A high-throughput screen of multi-cell type tumor spheroids was designed to identify active combinations of RAS pathway inhibitors and targeted small molecules. Complex spheroids include a stromal component modeled by human endothelial cells (HUVEC) and fibroblasts modeled by human mesenchymal stem cells (MSCs). The concentration ranges selected for each drug and investigational agent were based upon clinically achievable concentrations if the clinical Cmax of the agent was known.
# Compounds. The drugs and investigational agents: abemaciclib (NSC768073), cobimetinib (NSC768068), divarasib (GDC6063, NSC841802), docetaxel (NSC628503), GDC-1971 (RLY-1971, NSC841576), gemcitabine (NSC613327), inavolisib (NSC800729), ipatasertib (NSC767898), KB-0742 (NSC834161), MRTX-1133 (NSC836407), osimertinib (NSC779217), RMC-4630 (NSC839698), RMC-6236 (NSC851965), RMC-6291 (NSC852671), Ro-3306 (NSC812927), sapanisertib (NSC764658), SN-38 (NSC673596), staurosporine (NSC755774), SY5609 (NSC837396), and tovorafenib (DAY101, NSC766906), were obtained from the National Cancer Institute (NCI) Developmental Therapeutics Program Chemical Repository. The FDA-approved anticancer drug set is available from the NCI Developmental Therapeutics Program. […] The stock solutions were prepared in dimethyl sulfoxide (DMSO, Sigma-Aldrich, St. Louis, MO, cat. D2650) at 800-fold the tested concentration and stored at -70 degrees C prior to their use. All drugs and investigational agents were tested over a range starting from a high concentration at or near the clinical Cmax and decreasing in half-log increments. If the clinical Cmax for an agent had not been determined, the highest concentration tested was 10 microM.
# Cell Culture. All cells were maintained in an incubator at 37 degrees C and 5% CO2 with 95% humidity. The PDC lines were cultured according to standard operating procedures established by the NCI PDMR. All PDCs were thawed and cultured in Matrigel-coated flasks prepared with a working solution of 1X Ham's F-12 nutrient mix, without supplementation (Invitrogen, Waltham, MA, cat. 11765054), 100 U/mL penicillin-streptomycin (Invitrogen, cat. 15140122), and 2.5% Matrigel (Corning Inc., Corning, NY, cat. 354248) for the first three passages. The 362531-283-R-J2-PDC and 782815-120-R-J1-PDC lines were cultured in 6C/Colon 1B media, which includes advanced DMEM/F-12 (Thermo Fisher Scientific, cat. 12634028), 10 mM HEPES (Thermo Fisher Scientific, cat. 15630080), 1X GlutaMAX supplement (Thermo Fisher Scientific, cat. 35050061), 0.1 mg/mL primocin (InvivoGen, San Diego, CA, cat. ant-pm-2), 10% defined fetal bovine serum, heat inactivated (HyClone Laboratories Inc., Logan, UT, cat. SH30070.03HI), 50% L-WRN conditioned media (ATCC, cat. CRL-3276), 1.25 mM N-Acetyl-L-cysteine (Sigma-Aldrich, cat. A9165), 10 mM nicotinamide (Sigma-Aldrich, cat. N0636), 1X B-27 supplement (Thermo Fisher Scientific, cat. 17504044), 1X N-2 supplement (Thermo Fisher Scientific, cat. 17502048), 50 ng/mL human EGF (Thermo Fisher Scientific, cat. PHG0311), and 10 microM Y-27632 dihydrochloride (Tocris Bioscience, cat. 1254). The K12877-001-R-J1-PDC line was cultured in 6I media, which includes all 6C/Colon 1B media plus 10 ng/mL human FGF-10 (PeproTech, cat. 100-26), 1 ng/mL human FGF-2 (PeproTech, cat. 100-18B), 1 µM prostaglandin E2 (Tocris Bioscience, cat. 2296), […] hydrocortisone (Sigma-Aldrich, cat. H4001), and […] bovine insulin (Sigma-Aldrich, cat. I6634). The K86415-001-R-J1-PDC line was cultured in 6D media, which includes all 6C/Colon 1B media components minus the L-WRN conditioned media. The 485176-168-R4-J1-PDC was cultured in PANC media, which includes all 6C/Colon 1B media plus 100 ng/mL human FGF-10 (PeproTech, cat. 100-26), 500 nM SB-431542 (Selleckchem, cat. S1067), and 10 nM gastrin (Tocris Bioscience, cat. 3006). […]
# [1] = second compound 0.0316 µM, first compound 0.0316 µM
# [2] = second compound 0.0316 µM, first compound 0.1 µM
# [3] = second compound 0.0316 µM, first compound 0.316 µM
# [4] = second compound 0.0316 µM, first compound 1 µM
# [5] = second compound 0.0316 µM, first compound 3.16 µM
# [6] = second compound 0.0316 µM, first compound 10 µM
# [7] = second compound 0.1 µM, first compound 0.0316 µM
# [8] = second compound 0.1 µM, first compound 0.1 µM
# [9] = second compound 0.1 µM, first compound 0.316 µM
# [10] = second compound 0.1 µM, first compound 1 µM
# [11] = second compound 0.1 µM, first compound 3.16 µM
# [12] = second compound 0.1 µM, first compound 10 µM
# [13] = second compound 0.316 µM, first compound 0.0316 µM
# [14] = second compound 0.316 µM, first compound 0.1 µM
# [15] = second compound 0.316 µM, first compound 0.316 µM
# [16] = second compound 0.316 µM, first compound 1 µM
# [17] = second compound 0.316 µM, first compound 3.16 µM
# [18] = second compound 0.316 µM, first compound 10 µM
# [19] = second compound 1 µM, first compound 0.0316 µM
# [20] = second compound 1 µM, first compound 0.1 µM
# [21] = second compound 1 µM, first compound 0.316 µM
# [22] = second compound 1 µM, first compound 1 µM
# [23] = second compound 1 µM, first compound 3.16 µM
# [24] = second compound 1 µM, first compound 10 µM
# [25] = second compound 3.16 µM, first compound 0.0316 µM
# [26] = second compound 3.16 µM, first compound 0.1 µM
# [27] = second compound 3.16 µM, first compound 0.316 µM
# [28] = second compound 3.16 µM, first compound 1 µM
# [29] = second compound 3.16 µM, first compound 3.16 µM
# [30] = second compound 3.16 µM, first compound 10 µM
# [31] = second compound 10 µM, first compound 0.0316 µM
# [32] = second compound 10 µM, first compound 0.1 µM
# [33] = second compound 10 µM, first compound 0.316 µM
# [34] = second compound 10 µM, first compound 1 µM
# [35] = second compound 10 µM, first compound 3.16 µM
# [36] = second compound 10 µM, first compound 10 µM
# 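Note: spheroids exposed to compounds for 7 days before readout.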
# 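Throughout, for viability, T/C: 100% = DMSO vehicle control viability.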
structure (smiles),measurement,setting,value
CC1(O)CCCC1n1c(=O)c(C(F)F)cc2cnc(NC3CCN(S(C)(=O)=O)CC3)nc21 (stereo unspecified) + C#Cc1c(F)ccc2cc(O)cc(-c3ncc4c(N5CC6CCC(C5)N6)nc(OCC56CCCN5CC(F)C6)nc4c3F)c12,IC50,second compound 0.0316 µM,6.75 µM
same,IC50,second compound 0.1 µM,6.76 µM
same,IC50,second compound 0.316 µM,> 10 µM
same,IC50,second compound 1 µM,< 0.0316 µM
same,IC50,second compound 3.16 µM,< 0.0316 µM
same,IC50,second compound 10 µM,< 0.0316 µM
same,"viability, T/C",[1],69.8%
same,"viability, T/C",[2],75%
same,"viability, T/C",[3],71.9%
same,"viability, T/C",[4],80.1%
same,"viability, T/C",[5],81.7%
same,"viability, T/C",[6],36.7%
same,"viability, T/C",[7],69.4%
same,"viability, T/C",[8],72%
same,"viability, T/C",[9],62.6%
same,"viability, T/C",[10],68.7%
same,"viability, T/C",[11],75.7%
same,"viability, T/C",[12],40%
same,"viability, T/C",[13],56.2%
same,"viability, T/C",[14],51.5%
same,"viability, T/C",[15],51.2%
same,"viability, T/C",[16],65.6%
same,"viability, T/C",[17],65%
same,"viability, T/C",[18],39.9%
same,"viability, T/C",[19],44.2%
same,"viability, T/C",[20],38.9%
same,"viability, T/C",[21],46.9%
same,"viability, T/C",[22],50.3%
same,"viability, T/C",[23],55.3%
same,"viability, T/C",[24],36%
same,"viability, T/C",[25],30.1%
same,"viability, T/C",[26],33%
same,"viability, T/C",[27],36.5%
same,"viability, T/C",[28],36.9%
same,"viability, T/C",[29],38.5%
same,"viability, T/C",[30],28.6%
same,"viability, T/C",[31],25.6%
same,"viability, T/C",[32],26.6%
same,"viability, T/C",[33],28%
same,"viability, T/C",[34],28.1%
same,"viability, T/C",[35],28%
same,"viability, T/C",[36],24%
CCC(CC)c1cc(NC2CCC(N)C2)n2nccc2n1 (stereo unspecified) + C#Cc1c(F)ccc2cc(O)cc(-c3ncc4c(N5CC6CCC(C5)N6)nc(OCC56CCCN5CC(F)C6)nc4c3F)c12,IC50,second compound 0.0316 µM,2.1 µM
same,IC50,second compound 0.1 µM,1.97 µM
same,IC50,second compound 0.316 µM,1.47 µM
same,IC50,second compound 1 µM,< 0.0316 µM
same,IC50,second compound 3.16 µM,< 0.0316 µM
same,IC50,second compound 10 µM,< 0.0316 µM
same,"viability, T/C",[1],96.6%
same,"viability, T/C",[2],82.6%
same,"viability, T/C",[3],91.4%
same,"viability, T/C",[4],90.5%
same,"viability, T/C",[5],19.2%
same,"viability, T/C",[6],36.7%
same,"viability, T/C",[7],96.1%
same,"viability, T/C",[8],79%
same,"viability, T/C",[9],78.5%
same,"viability, T/C",[10],84.1%
same,"viability, T/C",[11],20.8%
same,"viability, T/C",[12],31.4%
same,"viability, T/C",[13],60.9%
same,"viability, T/C",[14],83.7%
same,"viability, T/C",[15],59.5%
same,"viability, T/C",[16],63.1%
same,"viability, T/C",[17],18.4%
same,"viability, T/C",[18],29.7%
same,"viability, T/C",[19],40.1%
same,"viability, T/C",[20],40.1%
same,"viability, T/C",[21],41.4%
same,"viability, T/C",[22],46.2%
same,"viability, T/C",[23],18.7%
same,"viability, T/C",[24],32.7%
same,"viability, T/C",[25],31.5%
same,"viability, T/C",[26],33.1%
same,"viability, T/C",[27],37.6%
same,"viability, T/C",[28],35.8%
same,"viability, T/C",[29],15.3%
same,"viability, T/C",[30],34.3%
same,"viability, T/C",[31],23.2%
same,"viability, T/C",[32],25.9%
same,"viability, T/C",[33],27.2%
same,"viability, T/C",[34],25.6%
same,"viability, T/C",[35],11.4%
same,"viability, T/C",[36],25.6%
CCN1CCN(Cc2ccc(Nc3ncc(F)c(-c4cc(F)c5nc(C)n(C(C)C)c5c4)n3)nc2)CC1 + C#Cc1c(F)ccc2cc(O)cc(-c3ncc4c(N5CC6CCC(C5)N6)nc(OCC56CCCN5CC(F)C6)nc4c3F)c12,IC50,second compound 0.0316 µM,> 1 µM
same,IC50,second compound 0.1 µM,> 1 µM
same,IC50,second compound 0.316 µM,> 1 µM
same,IC50,second compound 1 µM,< 0.00316 µM
same,IC50,second compound 3.16 µM,< 0.00316 µM
same,IC50,second compound 10 µM,< 0.00316 µM
same,"viability, T/C","second compound 0.0316 µM, first compound 0.00316 µM",75.4%
same,"viability, T/C","second compound 0.0316 µM, first compound 0.01 µM",70.4%
same,"viability, T/C",[1],58%
same,"viability, T/C",[2],49%
same,"viability, T/C",[3],58%
same,"viability, T/C",[4],59.7%
same,"viability, T/C","second compound 0.1 µM, first compound 0.00316 µM",71.4%
same,"viability, T/C","second compound 0.1 µM, first compound 0.01 µM",62%
same,"viability, T/C",[7],52.9%
same,"viability, T/C",[8],46.7%
same,"viability, T/C",[9],55.9%
same,"viability, T/C",[10],68.9%
same,"viability, T/C","second compound 0.316 µM, first compound 0.00316 µM",55.6%
same,"viability, T/C","second compound 0.316 µM, first compound 0.01 µM",56.8%
same,"viability, T/C",[13],38.3%
same,"viability, T/C",[14],45.2%
same,"viability, T/C",[15],51%
same,"viability, T/C",[16],57.3%
same,"viability, T/C","second compound 1 µM, first compound 0.00316 µM",38.2%
same,"viability, T/C","second compound 1 µM, first compound 0.01 µM",34.7%
same,"viability, T/C",[19],31.4%
same,"viability, T/C",[20],35.5%
same,"viability, T/C",[21],41.7%
same,"viability, T/C",[22],50.1%
same,"viability, T/C","second compound 3.16 µM, first compound 0.00316 µM",28.8%
same,"viability, T/C","second compound 3.16 µM, first compound 0.01 µM",26.4%
same,"viability, T/C",[25],31.3%
same,"viability, T/C",[26],25.3%
same,"viability, T/C",[27],30.9%
same,"viability, T/C",[28],36.2%
same,"viability, T/C","second compound 10 µM, first compound 0.00316 µM",23.5%
same,"viability, T/C","second compound 10 µM, first compound 0.01 µM",20.9%
same,"viability, T/C",[31],21.9%
same,"viability, T/C",[32],19.8%
same,"viability, T/C",[33],18.4%
same,"viability, T/C",[34],16.5%
